Measured values taken from paper PMC11456916, “A screen for cell envelope stress uncovers an inhibitor of prolipoprotein diacylglyceryl transferase, Lgt, in Escherichiacoli” (iScience, 2024).
Where two headings read alike, the source gives them in different places.

How the values were obtained:
Type in all cases: cell-based
E. coli BW25113 = assay: MIC assay, wild-type E. coli with or without SPR741
Protocol: (§1) We next sought to determine whether we could achieve growth inhibition of wild-type E. coli using MAC-0452936 and an antibiotic adjuvant. […] To that end, we determined the MIC of MAC-0452936 against wild-type E. coli in the presence and absence of a sub-MIC concentration of SPR741 (Figure S8B). […] We leveraged this combination to characterize the spectrum of activity of MAC-0452936 against a panel of Gram-negative pathogens (Table 2). In the presence of 8 μg/mL SPR741, we observed MAC-0452936 activity against the clinical E. coli isolates C0244 and CFT073 at 2 μg/mL as well as against Salmonella Typhimurium SL1344 at 4 μg/mL.
(§2) For MIC assays, cultures of bacteria were grown in LB broth. Overnight cultures were diluted (1:100) into fresh LB media and grown to the mid-log phase of growth (OD600 ∼0.5). Subcultures were then normalized to an OD600 of 0.1, and diluted (1:5000) into assay media. Assay plates were then incubated for 18 h at 37°C, then OD600 was measured using a Biotek Neo plate reader.

human red blood cells = assay: Haemolysis assay; conditions: 37°C, 1 h
Protocol: To determine the haemolytic activity and cytotoxicity of MAC-0452936, pooled human blood and HEK293t cells were used, respectively. Fresh pooled human blood for haemolytic assay was acquired from […] Technologies, whilst, HEK293t cells were originally acquired from ATCC (Cat# CRL-3216) and were regularly grown in […] (DMEM) with 10% fetal bovine serum (FBS), L-glutamine and incubated at 37°C. Cell lines are regularly tested for mycoplasma contamination.
Haemolytic activity of MAC-0452936 was assessed as described previously. Fresh human blood (10 mL, Stem Cell Technologies, USA) was centrifuged at 4,000 rpm for 10 min. The supernatant was discarded, and the pellet was rinsed three times with 1× PBS. Subsequently, the pellet was diluted 1:5 (v/v) in 1× PBS and RBC suspensions (0.5 mL each) were incubated with varying concentrations of test compounds at 37°C for 1 h. Following this, the cell suspensions were centrifuged at 5,000g for 10 min and the supernatant was meticulously collected without disturbing the pellet. Hemolysis was assessed by measuring the absorbance of the released hemoglobin in the supernatant at 540 nm using a spectrophotometer. Triton X-100 (0.1%) was used as the positive control causing 100 per cent hemolysis. All experiments were performed in triplicates.

E. coli CO244 = assay: MIC assay with or without SPR741, E. coli CO244; conditions: Escherichia coli
Protocol: as §1, §2

[1] = system: E. coli ΔtolC-pore harboring pPromrcsA-GFP-mobile; assay: Secondary screen of bioactive small molecules for rcsA bioreporter induction (agar diffusion); conditions: 100 nL of 10 mM stock spotted on MOPS minimal agar, visual analysis
From the text: To identify small molecules that act on the Gram-negative cell envelope, a set of 797 bioactive compounds that were previously identified to be antibacterial against efflux-deficient hyper-permeable E. coli (E. coli ΔtolC-pore) was screened to determine those that can induce the rcsA bioreporter on MOPS minimal medium. E. coli ΔtolC-pore is deficient in TolC-mediated drug efflux and expresses an outer-membrane pore encoded by fhuA,[46]^,[47] thereby allowing the capture of additional antibacterial chemical scaffolds that would normally be subject to efflux or are unable to traverse the E. coli outer membrane. As the compounds in the bioactive compound collection were all antibacterial at varying inhibitory concentrations, we conducted this secondary screen using a modified solid agar diffusion assay. This enabled testing of these antibacterial small molecules at a range of concentrations, which is often required to assess bioreporter induction. To that end, 100 nL aliquots of compounds from screening library plates were deposited onto discrete positions on MOPS agar impregnated with E. coli ΔtolC-pore harboring the reporter (Figure 3A). Compounds that induced reporter expression were determined through visual analysis of the screening plates following overnight growth by looking for signature green “halos” proximal to the zones of inhibition (Figure S4). […]

[2] = system: E. coli and the Gram-positive organisms Staphylococcus aureus and Bacillus subtilis; assay: Growth inhibition in dose of E. coli and Gram-positive organisms; conditions: tested in dose against E. coli, S. aureus and B. subtilis
Protocol: Of these 24 compounds, six were prioritized for further follow-up based on structural novelty relative to known antibacterial scaffolds and were tested in dose for growth inhibition of E. coli and the Gram-positive organisms Staphylococcus aureus and Bacillus subtilis (Figure S5). We hypothesized that compounds active against E. coli, but not the Gram-positive organisms, might target processes involved in the Gram-negative outer-membrane synthesis, many of which were identified as possible targets in our genetic screen. Importantly, these processes are either absent or not essential for growth in Gram-positive organisms, offering promise for narrow-spectrum applications.
as §2

COc1ccc(C(=O)O/N=C(\c2cccs2)C(C)(C)C)cc1 [MAC-0452936, (Z)-2-Pivaloylthiophene O-(4-methoxybenzoyl) oxime]
MIC (E. coli BW25113; Escherichia coli, BW25113, read-out: MIC, E. coli BW25113 + 0 μg/mL SPR741): > 64 µg/mL
activity against wild-type (WT) E. coli (E. coli BW25113; growth inhibition, no SPR741, in words): inactive
hemolysis of human red blood cells (human red blood cells): did not observe hemolysis
MIC (E. coli CO244; CO244, read-out: MIC, E. coli CO244 + 8 μg/mL SPR741): 2 µg/mL
MIC (E. coli CO244; CO244, read-out: MIC, E. coli CO244 + 0 μg/mL SPR741): > 64 µg/mL
rcsA bioreporter (GFP) induction in secondary screen [1]: induced pPromrcsA-GFP
spectrum of growth inhibition, E. coli versus Gram-positive organisms [2]: specifically inhibit E. coli
